Values quoted from earlier work as cited in patent publication US9763892B2, “Immediate release phospholipid-coated therapeutic agent nanoparticles and related methods” (Autotelic LLC, priority 2015, dated 2017).

Conditions: phospholipid used for PTX-NPs

Transition Temp.	Structure (SMILES)
24 °C	CCCCCCCCCCCCCC(=O)OC[C@H](COP(=O)([O-])OCC[N+](C)(C)C)OC(=O)CCCCCCCCCCCCC [PC-14, 1,2-dimyristoyl-sn-glycero-3-phosphocholine]
66 °C	CCCCCCCCCCCCCCCCCCCC(=O)OC[C@H](COP(=O)([O-])OCC[N+](C)(C)C)OC(=O)CCCCCCCCCCCCCCCCCCC [PC-20, 1,2-diarachidoyl-sn-glycero-3-phosphocholine]
−17 °C	CCCCCCCC/C=C\CCCCCCCC(=O)OC[C@H](COP(=O)([O-])OCC[N+](C)(C)C)OC(=O)CCCCCCC/C=C\CCCCCCCC [PC-18 (unsaturated), 1,2-dioleoyl-sn-glycero-3-phosphocholine]
41 °C	CCCCCCCCCCCCCCCC(=O)OC[C@H](COP(=O)([O-])OCC[N+](C)(C)C)OC(=O)CCCCCCCCCCCCCCC [PC 16, 1,2-dipalmitoyl-sn-glycero-3-phosphocholine]

Structure (SMILES)	Transition Temp.
CCCCCCCCCCCC(=O)OC[C@H](COP(=O)([O-])OCC[N+](C)(C)C)OC(=O)CCCCCCCCCCC [PC-12, 1,2-dilauroyl-sn-glycero-3-phosphocholine]	−2 °C
